48 compounds from patent US20140243292A1, “SUBSITUTED 2-(CHROMAN-6-YLOXYL)-THIAZOLES AND THEIR USE AS PHARMACEUTICALS” (Sanofi, priority 2011, published 2014) can be followed below.

pIC50: −log10 of the molar value. Counter-ions that a name gives are not always drawn.

The target in the first experiment is T1, human NCX1 (Homo sapiens, UniProt P32418).
T1 construct: expressed in transfected cells
Put plainly: NCX1 inhibition, reverse mode (Ca2+ influx into cells), FLIPR Fluo-4 assay. It is filed as cell-based. The note with it: NCX1 reverse mode; at 30 μM; read-out: Inhibition in % at 30 μM (NCX1rv; IC50 value not determined). From the text: The sodium/calcium exchanger NCX1 can transport calcium ions and sodium ions through the cell membrane. The transport is an exchange of Ca^2+ and Na^+ in two directions depending on membrane potential and ion gradients. At the first direction, named “forward mode” or “calcium export mode”, Ca^2+ is transported out of the cell and Na^+ is transported into the cell. At the other direction, named “reverse mode” or “calcium import mode”, the transport directions are vice versa. The effect of the compounds of the invention on NCX1 was determined in CHO cells stably expressing human NCX1 (gene symbol SLC8A1; cf. WO 2009/115238). The assay is based on the monitoring of intracellular Ca^2+ concentrations using a calcium-sensitive fluorescence dye which is detected by means of a FLIPR device (Fluorimetric Imaging Plate Reader, Molecular Devices).
The assay is based on the monitoring of intracellular Ca^2+ concentrations using the calcium-sensitive dye Fluo-4. CHO cells expressing NCX1 were loaded with the dye by means of the acetoxymethyl ester Fluo-4 AM (Invitrogen, F14202), which is cleaved intracellularly by esterase activity to yield the charged species of free Fluo-4. After an preincubation period with the test compound, Gramicidine (Sigma, G5002) was added. Gramicidine is an ionophor for Na^+ ions mediating an increase of intracellular Na^+ ions. Consequently, intracellular Na^+ ions are exchanged against extracellular Ca^2+ ions (Ca^2+ influx, reverse mode). The intracellular elevation of Ca^2+ ions was detected by measuring the fluorescence of Fluo-4 at a wavelength of 520 nm by a FLIPR device.
Briefly, for the reverse mode transport assay 18000 cells per well were seeded into a 96 well microplate (Corning COSTAR 3904) and incubated overnight in culture medium (1× Nut Mix F12 (Ham) (Gibco, 21765-029); 10% (v/v) fetal calf serum (PAA Gold, A15-649); 450 μg/ml Geneticin (Gibco, 10131-027)). A total volume of 100 μl medium per well was used. For the preparation of the FLIPR assay, the culture medium was removed from the plates and 100 μl of dye solution (2 μM Fluo-4 AM; 0.02% (v/v) Pluronic F-127 (20%, Invitrogen, P3000MP); 0.1% (v/v) bovine albumin solution (30% (v/v), Sigma, A9205) in assay buffer (133.8 mM NaCl (Sigma, S5886); 4.7 mM KCl (Sigma, P3911); 1.25 mM MgCl2 (Merck, 1.05833.0250); 3.5 mM CaCl2 (Merck, 1.02083.0250); 5 mM glucose (Sigma, G7021); 10 mM Hepes (Sigma, H4034); 0.01% (v/v) Pluronic F-127 (5%, Sigma, P2443); 2.5 mM Probenecid (Maybridge, SB00915EB); pH 7.4)) were added into each well. The plates were incubated in the dark at room temperature for 80 min. After the incubation period, the dye solution was removed and the wells were washed with 100 μl of assay buffer. Then 80 μl of a solution of the test compound in assay buffer in different concentrations were added into the wells. The plates were incubated at 16° C. for 45 min. Meanwhile a 60 μM solution of Gramicidine in assay buffer (4° C.) was prepared and stored in the wells of a 96 well microplate (96 well microplate, polypropylene, U-shape (Greiner Bio-One, 650201)) at 4° C. until measurement was started. The fluorescence monitoring was performed at 240 measuring points with measurement intervals of 2 sec. After the fifth measuring point, 40 μl of the Gramicidine solution were added to each well of the assay plates to give a final Gramicidine concentration of 20 μM. For the determination of the IC50 values the minimal fluorescence value was subtracted from the maximal fluorescence value for all measuring points. The calculation of the IC50 values via the percentage inhibitions of Ca^2+ influx into cells (reverse mode) effected by the test compound was performed in Biost@t Speed 2.0.
On to `O=C(O)CNC(=O)c1cnc(Oc2ccc3c(c2)CCC(c2cccnc2)O3)s1` (stereo not drawn) [compound 260], for which the inhibition at 30 µM is 38%.

Consider `CCOC(=O)C[C@H](O)[C@H](CC1CCCCC1)NC(=O)c1cnc(Oc2ccc3c(c2)CC[C@@H](c2ccccc2)O3)s1` [compound 227], for which the inhibition at 30 µM turned out to be 30%.

Still in this experiment, the particulars now being: inhibition of NCX1 in reverse mode (Ca2+ influx into cells); read-out: NCX1rv IC50.
In the case of `O=C(NCc1cnc(Oc2ccc3c(c2)CCC(c2ccccc2)O3)s1)c1ccncn1` (stereo not drawn) [compound 89], the negative logarithm of the IC50 (pIC50) is 6.70.

For `CC(C)Oc1cccc(C2CCc3cc(Oc4ncc(C(=O)NCc5ccncc5)s4)ccc3O2)c1` (stereo not drawn) [compound 96], the pIC50 was 6.10.

With `Cc1nc(Oc2ccc3c(c2)CC[C@@H](c2ccccc2)O3)sc1C(=O)NCc1ccnc(Cl)c1` [compound 178, 4-Methyl-2-((S)-2-phenyl-chroman-6-yloxy)-thiazole-5-carboxylic acid (2-chloro-pyridin-4-ylmethyl)-amide hydrochloride], the pIC50 was 6.40.

With `NC[C@@H]1[C@H]2CC[C@H](C2)[C@H]1NC(=O)c1cnc(Oc2ccc3c(c2)CC[C@@H](c2ccccc2)O3)s1` [compound 293], the pIC50 is 6.00.

Consider `Cc1nc2ccc(S(=O)(=O)NCc3cnc(Oc4ccc5c(c4)CCC(c4ccccc4)O5)s3)cc2s1` (stereo not drawn) [compound 124], for which the pIC50 was 6.05.

For `Cc1ccccc1C1CCc2cc(Oc3nc(C)c(C(=O)N4CC[C@@H](O)C4)s3)ccc2O1` (stereo partly drawn) [compound 336], the pIC50 is 6.22.

In the case of `CCc1ccccc1C1CCc2cc(Oc3ncc(C(=O)NCCN4CCNC4=O)s3)ccc2O1` (stereo not drawn) [compound 322], the pIC50 was 5.96.

Turning to `Cc1c(S(=O)(=O)NCc2cnc(Oc3ccc4c(c3)CCC(c3ccccc3)O4)s2)cnn1C` (stereo not drawn) [compound 133], the negative-log IC50 (pIC50) is 6.40.

With `Cc1noc(C)c1CCNC(=O)c1cnc(Oc2ccc3c(c2)CCC(c2cccc(OC(C)C)c2)O3)s1` (stereo not drawn) [compound 97], the pIC50 is 5.92.

As to `c1ccc(C2CCc3cc(Oc4ncc(CNCc5ccncn5)s4)ccc3O2)cc1` (stereo not drawn) [compound 161], the pIC50 is 6.52.

Take `O=C(NCc1ccno1)c1cnc(Oc2ccc3c(c2)CCC(c2cccc(F)c2)O3)s1` (stereo not drawn) [compound 49]: the pIC50 is 7.00.

Take `N[C@H]1C[C@@H]1NC(=O)c1cnc(Oc2ccc3c(c2)CC[C@@H](c2ccccc2)O3)s1` [compound 256]: the pIC50 was 6.52.

`CN1CCN(C(=O)c2cnc(Oc3ccc4c(c3)CC[C@@H](c3ccccc3)O4)s2)CC1` [compound 213, hydrochloride]: the pIC50 was 6.10.

Turning to `Cc1c(CNC(=O)c2cnc(Oc3ccc4c(c3)CC[C@@H](c3ccccc3)O4)s2)cnn1C` [compound 62], the pIC50 was 6.52.

Take `O=C(NCc1ccnc(Cl)c1)c1cnc(Oc2ccc3c(c2)CCC(c2cnccn2)O3)s1` (stereo not drawn) [compound 310]: the pIC50 is 5.59.

Regarding `NC1CC(NC(=O)c2cnc(Oc3ccc4c(c3)CC[C@@H](c3ccccc3)O4)s2)C1` (stereo partly drawn) [compound 257], the negative-log IC50 (pIC50) was 6.40.

Consider `CCn1nccc1CNC(=O)c1cnc(Oc2ccc3c(c2)CCC(c2cccc(F)c2OC)O3)s1` (stereo not drawn) [compound 365], for which the pIC50 was 6.26.

Regarding `CC[C@@H](NC(=O)c1cnc(Oc2ccc3c(c2)CCC(c2ccccc2)O3)s1)c1ccc(OC)nc1` (stereo partly drawn) [compound 27], the pIC50 is 6.52.

For `CCn1nccc1CNC(=O)c1cnc(Oc2ccc3c(c2)CCC(c2cccc(OC)c2F)O3)s1` (stereo not drawn) [compound 362], the pIC50 was 5.82.

As to `CC(C)C[C@H](NC(=O)c1cnc(Oc2ccc3c(c2)CC[C@@H](c2ccccc2)O3)s1)C(=O)O` [compound 241], the pIC50 is 6.22.

Take “2-((S)-2-Phenyl-chroman-6-yloxy)-thiazole-5-carboxylic acid (3-amino-propyl)-amide [compound 289]”: the pIC50 was 6.52.

For the compound `Cc1ncc(S(=O)(=O)NCc2cnc(Oc3ccc4c(c3)CCC(c3ccccc3)O4)s2)n1C` (stereo not drawn) [compound 127], the pIC50 is 5.96.

For `COc1cc(CNC(=O)c2cnc(Oc3ccc4c(c3)CCC(c3ccccc3)O4)s2)ccn1` (stereo not drawn) [compound 10], the pIC50 is 6.22.

For `CCC(C)[C@H](NC(=O)c1cnc(Oc2ccc3c(c2)CC[C@@H](c2ccccc2)O3)s1)C(=O)O` (stereo partly drawn) [compound 196], the pIC50 is 6.30.

For the compound `CC1Cc2cc(Oc3ncc(C(=O)NCc4ccno4)s3)ccc2OC1c1ccccc1` (stereo not drawn) [compound 363], the pIC50 is 5.72.

Turning to `CC(C)CC(C)(NC(=O)c1cnc(Oc2ccc3c(c2)CC[C@@H](c2ccccc2)O3)s1)C(=O)O` (stereo partly drawn) [compound 242], the pIC50 is 6.15.

`Cn1nccc1S(=O)(=O)NCc1cnc(Oc2ccc3c(c2)CCC(c2ccccc2)O3)s1` (stereo not drawn) [compound 128]: the pIC50 was 6.52.

In the case of `Cn1cnc(S(=O)(=O)NCc2cnc(Oc3ccc4c(c3)CCC(c3ccccc3)O4)s2)c1` (stereo not drawn) [compound 50, 1-Methyl-1H-imidazole-4-sulfonic acid [2-(2-phenyl-chroman-6-yloxy)-thiazol-5-ylmethyl]-amide hydrochloride], the pIC50 is 6.70.

As to `Cn1nccc1C(=O)NCc1cnc(Oc2ccc3c(c2)CCC(c2ccccc2)O3)s1` (stereo not drawn) [compound 86], the pIC50 was 6.52.

As to `Cc1cc2c(cc1Oc1ncc(C(=O)NCc3ccno3)s1)CCC(c1ccccc1C)O2` (stereo not drawn) [compound 358], the pIC50 was 6.08.

Turning to `O=C(NCc1cnc(Oc2ccc3c(c2)CCC(c2ccccc2)O3)s1)c1ccnc(Cl)c1` (stereo not drawn) [compound 68], the pIC50 was 6.10.

`Cc1nc(S(=O)(=O)NCc2cnc(Oc3ccc4c(c3)CCC(c3ccccc3)O4)s2)cn1C` (stereo not drawn) [compound 163]: the pIC50 was 6.40.

For `O=C(NCc1cnc(Oc2ccc3c(c2)CCC(c2ccccc2)O3)s1)c1ccnc(O)c1` (stereo not drawn) [compound 88], the pIC50 was 5.30.

With `COC(=O)C(C)(Cc1ccccc1)NC(=O)c1cnc(Oc2ccc3c(c2)CC[C@@H](c2ccccc2)O3)s1` (stereo partly drawn) [compound 218], the pIC50 was 5.60.

Consider `O=C(NCc1ccnc(N2CCCC2)c1)c1cnc(Oc2ccc3c(c2)CCC(c2ccccc2)O3)s1` (stereo not drawn) [compound 25], for which the pIC50 was 6.40.

With `Cc1csc(CCNCc2cnc(Oc3ccc4c(c3)CCC(c3ccccc3)O4)s2)n1` (stereo not drawn) [compound 151], the pIC50 is 6.40.

Turning to `O=C(c1cnc(Oc2ccc3c(c2)CCC(c2ccccc2)O3)s1)N1CCOCC1` (stereo not drawn) [compound 314], the negative logarithm of the IC50 (pIC50) is 7.00.

`O=C(NCc1ccnc(Cl)c1)c1cnc(Oc2ccc3c(c2)CCC(c2cncc(F)c2)O3)s1` (stereo not drawn) [compound 247]: the pIC50 was 6.15.

For the compound `O=C(NCCO)c1cnc(Oc2ccc3c(c2)CCC(c2cccnc2)O3)s1` (stereo not drawn) [compound 249], the pIC50 is 5.85.

With `Cc1ccccc1C1CCc2cc(Oc3nc(C)c(C(=O)NCCN4CCNC4=O)s3)ccc2O1` (stereo not drawn) [compound 333], the pIC50 was 6.22.

With `CC(C)CNC(=O)c1cnc(Oc2ccc3c(c2)CCC(c2ccccc2)O3)s1` (stereo not drawn) [compound 318], the pIC50 is 7.00.

As to `CCOC(=O)CNC(=O)c1cnc(Oc2ccc3c(c2)CCC(c2ccccc2)O3)s1` (stereo not drawn) [compound 308], the pIC50 was 6.70.

For the compound `CC(C)[C@H](NC(=O)c1cnc(Oc2ccc3c(c2)CC[C@@H](c2ccccc2)O3)s1)C(=O)O` [compound 197], the pIC50 was 6.22.

In the case of `O=C(CN1CCCC1=O)NCc1cnc(Oc2ccc3c(c2)CCC(c2ccccc2)O3)s1` (stereo not drawn) [compound 165], the pIC50 was 6.30.

Consider `O=C(NC1(C(=O)O)CCCC1)c1cnc(Oc2ccc3c(c2)CC[C@@H](c2ccccc2)O3)s1` [compound 195], for which the pIC50 was 6.15.

As for `CN(Cc1ccnc(N2CCCC2)c1)C(=O)c1cnc(Oc2ccc3c(c2)CCC(c2ccccc2)O3)s1` (stereo not drawn) [compound 26], the pIC50 was 6.52.

The term inhibition denotes the drop in the measured response relative to a control, in per cent. In general, pIC50 refers to the IC50 on a negative log10 scale, so that one unit is a factor of ten.
